Tests used:
Malme-3M = assay: Cytotoxicity against human MALME-3M cells assessed as growth level at 10 uM after 48 hrs by SRB assay; type: functional
[1] = Cytotoxicity against human OVCAR4 cells assessed as growth level at 10 uM after 48 hrs by SRB assay; type: functional, OVCAR-4
SR = assay: Cytotoxicity against human SR cells assessed as growth inhibition at 10 uM after 48 hrs by SRB assay; type: functional; settings: read-out: GI
MDA-MB-231 [2] = assay: Cytotoxicity against human MDA-MB-231 cells assessed as growth level at 10 uM after 48 hrs by SRB assay; type: functional
[3] = Cytotoxicity against human Caki1 cells assessed as growth level at 10 uM after 48 hrs by SRB assay; type: functional, CAKI-1
[4] = Cytotoxicity against human IGROV1 cells assessed as growth inhibition at 10 uM after 48 hrs by SRB assay; type: functional; settings: IGROV-1, 48 h, read-out: GI
K562 [5] = assay: Cytotoxicity against human K562 cells assessed as growth level at 10 uM after 48 hrs by SRB assay; type: functional
[6] = Cytotoxicity against human OVCAR8 cells assessed as growth level at 10 uM after 48 hrs by SRB assay; type: functional, OVCAR-8
[7] = Cytotoxicity against human OVCAR3 cells assessed as growth inhibition at 10 uM after 48 hrs by SRB assay; type: functional; settings: OVCAR-3, 48 h, read-out: GI
786-0 [8] = assay: Cytotoxicity against human 786-0 cells assessed as growth inhibition at 10 uM after 48 hrs by SRB assay; type: functional; settings: 786-0, 48 h, read-out: GI
NCI-H460 = assay: Cytotoxicity against human NCI-H460 cells assessed as growth inhibition at 10 uM after 48 hrs by SRB assay; type: functional; settings: NCI-H460, 48 h, read-out: GI
[9] = Cytotoxicity against human SKOV3 cells assessed as growth inhibition at 10 uM after 48 hrs by SRB assay; type: functional; settings: SK-OV-3, 48 h, read-out: GI
NCI-H226 = assay: Cytotoxicity against human NCI-H226 cells assessed as growth inhibition at 10 uM after 48 hrs by SRB assay; type: functional; settings: NCI-H226, 48 h, read-out: GI
MDA-MB-435 [10] = assay: Cytotoxicity against human MDA-MB-435 cells assessed as growth inhibition at 10 uM after 48 hrs by SRB assay; type: functional; settings: MDA-MB-435, 48 h, read-out: GI
[11] = Cytotoxicity against human HCT116 cells assessed as growth level at 10 uM after 48 hrs by SRB assay; type: functional, HCT-116
[12] = Cytotoxicity against human HCT116 cells assessed as growth inhibition at 10 uM after 48 hrs by SRB assay; type: functional; settings: HCT-116, 48 h, read-out: GI
MDA-MB-468 [13] = assay: Cytotoxicity against human MDA-MB-468 cells assessed as growth level at 10 uM after 48 hrs by SRB assay; type: functional
[14] = Cytotoxicity against human SF268 cells assessed as growth level at 10 uM after 48 hrs by SRB assay; type: functional, SF-268
U-251 = assay: Cytotoxicity against human U251 cells assessed as growth level at 10 uM after 48 hrs by SRB assay; type: functional
MDA-MB-231 [15] = assay: Cytotoxicity against human MDA-MB-231 cells assessed as growth inhibition at 10 uM after 48 hrs by SRB assay; type: functional; settings: MDA-MB-231, 48 h, read-out: GI
[16] = Cytotoxicity against human SF539 cells assessed as growth inhibition at 10 uM after 48 hrs by SRB assay; type: functional; settings: SF-539, 48 h, read-out: GI
786-0 [17] = assay: Cytotoxicity against human 786-0 cells assessed as growth level at 10 uM after 48 hrs by SRB assay; type: functional
[18] = Cytotoxicity against human OVCAR3 cells assessed as growth level at 10 uM after 48 hrs by SRB assay; type: functional, OVCAR-3
[19] = Cytotoxicity against human LOXIMVI cells assessed as growth inhibition at 10 uM after 48 hrs by SRB assay; type: functional; settings: LOX IMVI, read-out: GI
KM12 = assay: Cytotoxicity against human KM12 cells assessed as growth level at 10 uM after 48 hrs by SRB assay; type: functional
EKVX [20] = assay: Cytotoxicity against human EKVX cells assessed as growth level at 10 uM after 48 hrs by SRB assay; type: functional
MDA-MB-468 [21] = assay: Cytotoxicity against human MDA-MB-468 cells assessed as growth inhibition at 10 uM after 48 hrs by SRB assay; type: functional; settings: MDA-MB-468, 48 h, read-out: GI
[22] = Cytotoxicity against human NCI-ADR-RES cells assessed as growth level at 10 uM after 48 hrs by SRB assay; type: functional
[23] = Cytotoxicity against human HOP92 cells assessed as growth inhibition at 10 uM after 48 hrs by SRB assay; type: functional; settings: HOP-92, 48 h, read-out: GI
ACHN = assay: Cytotoxicity against human ACHN cells assessed as growth level at 10 uM after 48 hrs by SRB assay; type: functional
[24] = Cytotoxicity against human OVCAR8 cells assessed as growth inhibition at 10 uM after 48 hrs by SRB assay; type: functional; settings: OVCAR-8, 48 h, read-out: GI
A549 = assay: Cytotoxicity against human A549 cells assessed as growth level at 10 uM after 48 hrs by SRB assay; type: functional
[25] = Cytotoxicity against human TK10 cells assessed as growth level at 10 uM after 48 hrs by SRB assay; type: functional, TK-10
A498 = assay: Cytotoxicity against human A498 cells assessed as growth level at 10 uM after 48 hrs by SRB assay; type: functional
SK-MEL-28 = assay: Cytotoxicity against human SK-MEL-28 cells assessed as growth inhibition at 10 uM after 48 hrs by SRB assay; type: functional; settings: SK-MEL-28, 48 h, read-out: GI
[26] = Cytotoxicity against human SF295 cells assessed as growth level at 10 uM after 48 hrs by SRB assay; type: functional, SF-295
EKVX [27] = assay: Cytotoxicity against human EKVX cells assessed as growth inhibition at 10 uM after 48 hrs by SRB assay; type: functional; settings: read-out: GI
[28] = Cytotoxicity against human HCT15 cells assessed as growth inhibition at 10 uM after 48 hrs by SRB assay; type: functional; settings: HCT-15, 48 h, read-out: GI
K562 [29] = assay: Cytotoxicity against human K562 cells assessed as growth inhibition at 10 uM after 48 hrs by SRB assay; type: functional; settings: K562, 48 h, read-out: GI
MDA-MB-435 [30] = assay: Cytotoxicity against human MDA-MB-435 cells assessed as growth level at 10 uM after 48 hrs by SRB assay; type: functional
[31] = Cytotoxicity against human SW620 cells assessed as growth inhibition at 10 uM after 48 hrs by SRB assay; type: functional; settings: SW-620, 48 h, read-out: GI
[32] = Cytotoxicity against human UACC257 cells assessed as growth level at 10 uM after 48 hrs by SRB assay; type: functional, UACC-257
[33] = Cytotoxicity against human MOLT4 cells assessed as growth inhibition at 10 uM after 48 hrs by SRB assay; type: functional; settings: MOLT-4, 48 h, read-out: GI

C=C1CC[C@@H]2[C@](C)(COC(C)=O)[C@H](OC(C)=O)CC[C@@]2(C)[C@@H]1CC(NC1CCCC1)C1=CCOC1=O (stereo partly drawn)
Activity (Malme-3M): 84.55%
Activity [1]: 58.35%
inhibition of growth at 10 µM (SR): 80.4%
Activity (MDA-MB-231 [2]): 80.39%
Activity [3]: 60.7%
inhibition of growth at 10 µM [4]: 11.8%
Activity (K562 [5]): 48.3%
Activity [6]: 53.68%
inhibition of growth at 10 µM [7]: 31%
inhibition of growth at 10 µM (786-0 [8]): 7.49%
inhibition of growth at 10 µM (NCI-H460): 25.2%
inhibition of growth at 10 µM [9]: 12.1%
inhibition of growth at 10 µM (NCI-H226): 15.5%
inhibition of growth at 10 µM (MDA-MB-435 [10]): 24.3%
Activity [11]: 44.68%
inhibition of growth at 10 µM [12]: 55.3%
Activity (MDA-MB-468 [13]): 34.72%
Activity [14]: 76.66%
Activity (U-251): 75.39%
inhibition of growth at 10 µM (MDA-MB-231 [15]): 19.6%
inhibition of growth at 10 µM [16]: 10.6%
Activity (786-0 [17]): 92.51%
Activity [18]: 68.98%
inhibition of growth at 10 µM [19]: 31.5%
Activity (KM12): 74.46%
Activity (EKVX [20]): 52.44%
inhibition of growth at 10 µM (MDA-MB-468 [21]): 65.3%
Activity [22]: 68.47%
inhibition of growth at 10 µM [23]: 74.8%
Activity (ACHN): 78.47%
inhibition of growth at 10 µM [24]: 46.3%
Activity (A549): 73.55%
Activity [25]: 87.06%
Activity (A498): 68%
inhibition of growth at 10 µM (SK-MEL-28): 8.95%
Activity [26]: 90.39%
inhibition of growth at 10 µM (EKVX [27]): 47.6%
inhibition of growth at 10 µM [28]: 33%
inhibition of growth at 10 µM (K562 [29]): 51.7%
Activity (MDA-MB-435 [30]): 75.73%
inhibition of growth at 10 µM [31]: 32.5%
Activity [32]: 38.37%
inhibition of growth at 10 µM [33]: 57.6%

Reference: ChEMBL document CHEMBL3734705, “Synthesis and in vitro cytotoxicity of novel C-12 substituted-14-deoxy-andrographolide derivatives as potent anti-cancer agents” (2015)
